The test can be described thus: Inhibition of mouse KLK5 assessed as inhibition constant using Boc-VPR-AMC as fluorogenic substrate incubated for 30 mins by fluorescence plate reader assay.

In general, Ki refers to the equilibrium dissociation constant of an inhibitor or competing ligand from its target.

For the molecule `CCCCCCCCCCCCCCCC(=O)NCCCC[C@H](NC(=O)[C@H](CCC(=O)O)NC(=O)[C@H](Cc1ccc(O)cc1)NC(=O)[C@H](CCC(=O)O)NC(=O)COCCOCCNC(=O)c1ccc(-c2c3ccc(=O)cc-3oc3cc(O)ccc23)c(C(=O)O)c1)C(=O)N[C@@H](CCC(=O)O)C(=O)N[C@@H](Cc1ccc(O)cc1)C(=O)N[C@@H](CCC(=O)O)C(=O)NCCOCCOCC(=O)NCCCC[C@H](NC(=O)CNC(=O)[C@@H]1CSCC(=O)CSC[C@H](NC(=O)CN)C(=O)N[C@@H]([C@@H](C)O)C(=O)N[C@@H](CCCNC(=N)N)C(=O)N[C@@H](CCC(N)=O)C(=O)N[C@@H](Cc2ccc(O)cc2)C(=O)N2CCC[C@H]2C(=O)N1)C(=O)NCC(N)=O`, the Ki was 1.4 nM.

The values are drawn from BindingDB's records for PubMed 35653695 (Ecole Polytechnique F?d?rale de Lausanne …, 2022).
